Results published in US8299236B2, “Compositions and methods for enhancing delivery of nucleic acids into cells and for modifying expression of target genes in cells” (Marina Biotech, Inc., priority 2004, dated 2012).

Columns and labels:
9 L/LacZ cells = assay: Screening of siRNA/peptide complexes for FAM-siRNA uptake (flow cytometry, propidium iodide); format: cell-based; conditions: Table 6
mouse tail fibroblasts = assay: siRNA uptake with siRNA/peptide complexes in murine primary fibroblasts; format: cell-based; conditions: Table 6
Procedure: Approximately 10,000 9 L/lacZ cells were plated per well in flat-bottom 96-well plates so that they would be ˜50% confluent the next day at the time of transfection. FAM-labeled siRNA and peptides were diluted in Opti-MEM® media (Invitrogen) at 2-fold the final concentration. Equal volumes of siRNA and peptide were mixed and allowed to complex 5-10 minutes at room temperature and then 50 μL added to cells, previously washed with PBS. Cells were transfected for 3 hours at 37° C., 5% CO2. Cells were washed with PBS, treated with trypsin and then analyzed by flow cytometry. siRNA uptake was measured by intensity of FAM fluorescence and cellular viability assessed by addition of propidium iodide.
The materials and methods used for these experiments are generally the same as described above, except that for the murine experiments 9 L/LacZ cells were replaced with mouse tail fibroblasts.
The uptake measurements were performed using mouse tail fibroblast cells.

cells = assay: Uptake of peptide-siRNA conjugate versus complex (Cy5 fluorescence, flow cytometry); format: cell-based; conditions: FIGS. 1 and 2
Procedure: Cells were plated the day before in 24-well plates so that they were ˜50-80% confluent at time of transfection. For complexes, siRNA and peptide were diluted in Opti-MEM® media (Invitrogen), then mixed and allowed to complex 5-10 minutes before adding to cells washed with PBS. Final concentration of siRNA was 500 nM at each peptide concentration (2-50 μM). The conjugate, also diluted in Opti-MEM® media, was added to cells at final concentrations ranging from 62.5 nM to 500 nM. At 500 nM concentration, we also combined with 20% FBS just before adding to washed cells. Cells were transfected for 3 hours at 37° C., 5% CO2. Cells were washed with PBS, treated with trypsin and then analyzed by flow cytometry. siRNA uptake was measured by intensity of Cy5 fluorescence and cellular viability assessed by addition of propidium iodide.

hTNF-α = assay: Plasma hTNF-α ELISA in human TNF-α expressing mice; format: in vivo, mouse; conditions: i.v., average of the mice
Text: During the injection periods, plasma samples were collected for ELISA testing (R&D Systems, Cat#SSTA00C), and paw scores were taken twice a week as an accepted index of RA disease progression and therapeutic efficacy.

[1] = system: transgenic mouse models of rheumatoid arthritis (RA) constitutively expressing human TNF-α; assay: Transgenic mouse models of rheumatoid arthritis constitutively expressing human TNF-α; format: in vivo; conditions: twice weekly beginning at age 6 weeks; stabilization beginning at age 7 weeks
Procedure: One exemplary candidate siRNA/delivery peptide formulation was evaluated in two transgenic mouse models of rheumatoid arthritis (RA) constitutively expressing human TNF-α.

Row | Substance | Percent Uptake, LacZ Cells (9 L/LacZ cells) [%] | Percent Uptake, Primary MTF Cells (mouse tail fibroblasts) [%] | further results
1 | AAVALLPAVLLALLAPRKKRRQRRRPPQC [PN27] | 86 | 61 | 
2 | H-RRRQRRKRGGDIMGEWGNEIFGAIAGFLG-NH2 [PN250] | 99 | 86 | 
3 | H-AAVALLPAVLLALLAPSGASGLDKRDYV-NH2 [PN29] | 87 |  | 
4 | H-RGSRRAVTRAQRRDGRRRRRSRRESYSVYVYRVLRQ-NH2 [PN404] |  | 50 | 
5 | NH2-LLETLLKPFQCRICMRNFSTRQARRNHRRRHRR-amide (H-LLETLLKPFQCRICMRNFSTRQARRNHRRRHRR-NH2; cysteine pairing not given here) [PN202] | 71 |  | 
6 | Ac-KETWWETWWTEWSQPKKKRKV-NH2 [PN182] | 85 |  | 
7 | H-GALFLGFLGAAGSTMGAWSQPKSKRKVC-NH2 [PN453] |  | 79 | 
8 | conjugate: TAT-HA peptide (SEQ ID NO: 35) covalently conjugated to the siRNA sense strand (SEQ ID NO: 34) (chain 1 gcaagcugacccugaaguucau; chain 2 RRRQRRKRGGDIMGEWGNEIFGAIAGFLG; peptide-siRNA conjugate) |  |  | siRNA uptake and mean fluorescence, conjugate compared to complexing peptide and RNA (cells): higher uptake and greater mean fluorescence uptake
9 | NH2-RKKRRQRRRPPQCAAVALLPAVLLALLAP-amide (H-RKKRRQRRRPPQCAAVALLPAVLLALLAP-NH2) [PN28] | 79 | 81 | 
10 | Ramicade: the RA drug Ramicade (5 mg/kg); TNF-α neutralizing agent infliximab |  |  | hTNF-α ELISA (plasma) (hTNF-α; age 7 weeks): 102.24 pg/mL; hTNF-α ELISA (plasma) (hTNF-α; age 8 weeks): 39.27 pg/mL; hTNF-α ELISA (plasma) (hTNF-α; age 9 weeks): 25.80 pg/mL; RA score (paw and joint inflammation) [1]: RA score stabilization
